Measured values reported in paper PMC10866072, “Design, synthesis, molecular modelling and biological evaluation of novel 6-amino-5-cyano-2-thiopyrimidine derivatives as potent anticancer agents against leukemia and apoptotic inducers” (Journal of Enzyme Inhibition and Medicinal Chemistry, 2024).

Columns and labels:
[1] = system: CCRF-CEM; type: cell-based; details: one dose 10^-5 M, 48 h
[2] = system: HL-60(TB); type: cell-based; details: one dose 10^-5 M, 48 h
[3] = system: K-562; type: cell-based; details: one dose 10^-5 M, 48 h
[4] = system: MOLT-4; type: cell-based; details: one dose 10^-5 M, 48 h
[5] = system: RPMI-8226; type: cell-based; details: one dose 10^-5 M, 48 h
[6] = system: SR; type: cell-based; details: one dose 10^-5 M, 48 h
[7] = system: A549/ATCC; type: cell-based; details: one dose 10^-5 M, 48 h
[8] = system: EKVX; type: cell-based; details: one dose 10^-5 M, 48 h
[9] = system: HOP-62; type: cell-based; details: one dose 10^-5 M, 48 h
[10] = system: HOP-92; type: cell-based; details: one dose 10^-5 M, 48 h
[11] = system: NCI-H226; type: cell-based; details: one dose 10^-5 M, 48 h
[12] = system: NCI-H23; type: cell-based; details: one dose 10^-5 M, 48 h
[13] = system: NCI-H460; type: cell-based; details: one dose 10^-5 M, 48 h
[14] = system: NCI-H522; type: cell-based; details: one dose 10^-5 M, 48 h
[15] = system: COLO 205; type: cell-based; details: one dose 10^-5 M, 48 h
[16] = system: HCC-2998; type: cell-based; details: one dose 10^-5 M, 48 h
[17] = system: HCT-116; type: cell-based; details: one dose 10^-5 M, 48 h
[18] = system: HCT-15; type: cell-based; details: one dose 10^-5 M, 48 h
[19] = system: HT29; type: cell-based; details: one dose 10^-5 M, 48 h
[20] = system: KM12; type: cell-based; details: one dose 10^-5 M, 48 h
[21] = system: SW-620; type: cell-based; details: one dose 10^-5 M, 48 h
[22] = system: SF-268; type: cell-based; details: one dose 10^-5 M, 48 h
[23] = system: SF-295; type: cell-based; details: one dose 10^-5 M, 48 h
[24] = system: SF-539; type: cell-based; details: one dose 10^-5 M, 48 h
[25] = system: SNB-19; type: cell-based; details: one dose 10^-5 M, 48 h
[26] = system: U251; type: cell-based; details: one dose 10^-5 M, 48 h
[27] = system: LOX IMVI; type: cell-based; details: one dose 10^-5 M, 48 h
[28] = system: MALME-3M; type: cell-based; details: one dose 10^-5 M, 48 h
[29] = system: M14; type: cell-based; details: one dose 10^-5 M, 48 h
[30] = system: MDA-MB-435; type: cell-based; details: one dose 10^-5 M, 48 h
[31] = system: SK-MEL-2; type: cell-based; details: one dose 10^-5 M, 48 h
[32] = system: SK-MEL-28; type: cell-based; details: one dose 10^-5 M, 48 h
[33] = system: SK-MEL-5; type: cell-based; details: one dose 10^-5 M, 48 h
[34] = system: UACC-257; type: cell-based; details: one dose 10^-5 M, 48 h
[35] = system: UACC-62; type: cell-based; details: one dose 10^-5 M, 48 h
[36] = system: IGROV1; type: cell-based; details: one dose 10^-5 M, 48 h
[37] = system: OVCAR-3; type: cell-based; details: one dose 10^-5 M, 48 h
[38] = system: OVCAR-4; type: cell-based; details: one dose 10^-5 M, 48 h
[39] = system: OVCAR-5; type: cell-based; details: one dose 10^-5 M, 48 h
[40] = system: OVCAR-8; type: cell-based; details: one dose 10^-5 M, 48 h
[41] = system: NCI/ADR-RES; type: cell-based; details: one dose 10^-5 M, 48 h
[42] = system: SK-OV-3; type: cell-based; details: one dose 10^-5 M, 48 h
[43] = system: 786-0; type: cell-based; details: one dose 10^-5 M, 48 h
[44] = system: A498; type: cell-based; details: one dose 10^-5 M, 48 h
[45] = system: ACHN; type: cell-based; details: one dose 10^-5 M, 48 h
[46] = system: CAKI-1; type: cell-based; details: one dose 10^-5 M, 48 h
[47] = system: RXF 393; type: cell-based; details: one dose 10^-5 M, 48 h
[48] = system: SN12C; type: cell-based, human; details: one dose 10^-5 M, 48 h
[49] = system: TK-10; type: cell-based; details: one dose 10^-5 M, 48 h
[50] = system: UO-31; type: cell-based; details: one dose 10^-5 M, 48 h
[51] = system: PC-3; type: cell-based; details: one dose 10^-5 M, 48 h
[52] = system: DU-145; type: cell-based; details: one dose 10^-5 M, 48 h
[53] = system: MCF7; type: cell-based; details: one dose 10^-5 M, 48 h
[54] = system: MDA-MB-231/ATCC; type: cell-based; details: one dose 10^-5 M, 48 h
[55] = system: HS 578T; type: cell-based; details: one dose 10^-5 M, 48 h; HS 578T
[56] = system: BT-549; type: cell-based; details: one dose 10^-5 M, 48 h
[57] = system: T-47D; type: cell-based; details: one dose 10^-5 M, 48 h
[58] = system: MDA-MB-468; type: cell-based; details: one dose 10^-5 M, 48 h
[59] = system: full NCI 60 cell lines panel
Experimental: 60 different human tumour cell lines-representing leukaemia, melanoma, and malignancies of the lung, colon, brain, ovary, breast, prostate, and kidney are used in the operation of this screen.
Compounds were dissolved in DMSO: glycerol (91) and were kept in a freezer at −70° C. The synthesised compounds were introduced to the culture at a single concentration of 1 0 ^−5 M and left to incubate for 48 h. A protein-binding dye called sulforhodamine B was used to measure end points (SRB).
A mean graph showing the % growth of treated cells is used to represent the one-dose data. The value provided for the One-dose assay represents growth in comparison to the no-drug control and to the number of cells at time zero. This enables the identification of lethality (values between 0 and 100) as well as growth inhibition (values less than 0). A value of 100, for instance, indicates no growth inhibition. A value of 40 would indicate 60% growth inhibition. A value of 0 indicates no net growth over the course of the experiment. A value of −40 would indicate 40% lethality.
Furthermore, the average sensitivity of all cell lines to the compound is termed as the full panel mean graph midpoints (MG-MID). The complete panel mean graph midpoints refers to the average sensitivity of all cell lines to the chemical (MG-MID). A measure of a compound’s selectivity for a given cell line is the ratio created by dividing the full panel mean graph midpoints (MG-MID) concentration by the individual subpanel MG-MID concentrations (obtained as the average sensitivity of all the cell lines in a given subpanel to the test compound).

## 4-Amino-6–(2,4-dichlorophenyl)-2-mercaptopyrimidine-5-carboximidohydrazide [Compound 2c]
[1]
  % growth: 75.32%
[2]
  % growth: 57.91%
[3]
  % growth: 91.24%
[4]
  % growth: 94.43%
[5]
  % growth: 87.93%
[6]
  % growth: 69.30%
[7]
  % growth: 89.50%
[8]
  % growth: 83.88%
[9]
  % growth: 95.11%
[10]
  % growth: 71.67%
[11]
  % growth: 90.50%
[12]
  % growth: 95.68%
[13]
  % growth: 89.85%
[14]
  % growth: 68.80%
[15]
  % growth: 100.56%
[16]
  % growth: 108.77%
[17]
  % growth: 85.00%
[18]
  % growth: 92.01%
[19]
  % growth: 89.84%
[20]
  % growth: 100.35%
[21]
  % growth: 87.86%
[22]
  % growth: 104.49%
[23]
  % growth: 93.63%
[24]
  % growth: 85.28%
[25]
  % growth: 86.22%
[26]
  % growth: 103.26%
[27]
  % growth: 86.57%
[28]
  % growth: 94.17%
[29]
  % growth: 95.64%
[30]
  % growth: 96.41%
[31]
  % growth: 95.39%
[32]
  % growth: 109.76%
[33]
  % growth: 97.76%
[34]
  % growth: 102.94%
[35]
  % growth: 84.96%
[36]
  % growth: 104.68%
[37]
  % growth: 104.96%
[38]
  % growth: 82.22%
[39]
  % growth: 98.09%
[40]
  % growth: 94.00%
[41]
  % growth: 103.23%
[42]
  % growth: 94.00%
[43]
  % growth: 90.40%
[44]
  % growth: 105.32%
[45]
  % growth: 76.09%
[46]
  % growth: 83.79%
[47]
  % growth: 94.62%
[48]
  % growth: 91.26%
[49]
  % growth: 111.85%
[50]
  % growth: 71.44%
[51]
  % growth: 77.58%
[52]
  % growth: 107.65%
[53]
  % growth: 79.62%
[54]
  % growth: 77.09%
[55]
  % growth: 99.16%
[56]
  % growth: 81.84%
[57]
  % growth: 73.88%
[58]
  % growth: 90.16%
[59]; one dose
  activity on all 60 cancer cell lines tested (in words): weak activity
[59]; one dose 10^-5 M, 48 h, mean over all cell lines
  Mean % growth: 90.71%
